These results are taken from patent publication US20040248887A1, “Inhibitors of cathepsin S” (IRM LLC, priority 2003, published 2004).

The target in this assay is Cathepsin S (Homo sapiens, UniProt P25774). The experiment in a line: Cathepsin S inhibition, fluorogenic peptide substrate kinetic assay. It counts as biochemical. Particulars: Table II; Cathepsin S inhibition constant, pH5.5; read-out: Ki Cat. S. An outline of the steps: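 Reactions were started with 50 μM (final) acetyl-His-Pro-Val-Lys-aminocarbamoylcoumarin, and hydrolysis was followed by fluorescence (ex 380/em 450 nm). Apparent inhibition constants from enzyme progress curves were converted to Ki for competitive inhibitors using substrate concentration and Km.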
Cathepsin S, sequence (P25774 115-331, species assumed): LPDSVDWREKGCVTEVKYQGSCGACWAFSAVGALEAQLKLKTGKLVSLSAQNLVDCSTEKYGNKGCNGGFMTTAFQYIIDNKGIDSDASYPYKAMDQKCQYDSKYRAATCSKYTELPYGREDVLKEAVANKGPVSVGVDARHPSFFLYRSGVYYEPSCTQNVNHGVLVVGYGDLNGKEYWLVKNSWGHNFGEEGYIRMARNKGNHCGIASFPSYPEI
Consider `C[C@@H](CNc1ccc(S(C)(=O)=O)cc1)NC(=O)[C@H](CC1CCCCC1)NC(=O)c1ccc(-c2ccc(F)cc2)o1` [Compound 107, 5-(4-Fluoro-phenyl)-furan-2-carboxylic acid {2-cyclohexyl-1-(S)-[2-(4-methanesulfonyl-phenylamino)-1-(S)-methyl-ethylcarbamoyl]-ethyl}-amide], for which the Ki (usually a dissociation constant, usually derived from enzyme kinetics or from competition with a known ligand) is less than 0.1 µM.
Take `C[C@@H](CN1CCc2cc(F)ccc21)NC(=O)[C@H](CC1CCCCC1)NS(=O)(=O)c1cccc(OC(F)(F)F)c1` [Compound 254, (S,S)-3-Cyclohexyl-N-[2-(5-fluoro-2,3-dihydro-indol-1-yl)-1-methyl-ethyl]-2-(3-trifluoromethoxy-benzenesulfonylamino)-propionamide]: the inhibition constant (Ki) is less than 0.1 µM.
To `CC(=O)N1CCC(Oc2ccc(C(=O)N[C@@H](CC3CCCCC3)C(=O)NCCN3CCc4cc(F)ccc43)cc2)CC1` [Compound 69, 4-(1-Acetyl-piperidin-4-yloxy)-N-(S)-{2-cyclohexyl-1-[2-(5-fluoro-2,3-dihydro-indol-1-yl)-ethylcarbamoyl]-ethyl}-benzamide] belongs less than 1 µM; to `O=C(N[C@@H](CC1CCCCC1)C(=O)NCCN1CCc2cc(F)ccc21)c1ccc(-c2ccccc2)o1` [Compound 75, 5-Phenyl-furan-2-carboxylic acid (S)-{2-cyclohexyl-1-[2-(5-fluoro-2,3-dihydro-indol-1-yl)-ethylcarbamoyl]-ethyl}-amide], less than 0.1 µM; to `O=C(NCCN1CCc2cc(F)ccc21)[C@H](CC1CCCCC1)NS(=O)(=O)c1ccc(OC(F)(F)F)cc1` [Compound 230, (S)-3-Cyclohexyl-N-[2-(5-fluoro-2,3-dihydro-indol-1-yl)-ethyl]-2-(4-trifluoromethoxy-benzenesulfonylamino)-propionamide], less than 1 µM.
To `COCC(=O)N[C@@H](CC1CCCCC1)C(=O)N[C@@H](C)CNc1ccc(OC(F)(F)F)cc1` [Compound 124, 3-Cyclohexyl-2-(S)-(2-methoxy-acetylamino)-N-[1-(S)-methyl-2-(4-trifluoromethoxy-phenylamino)-ethyl]-propionamide] belongs less than 0.1 µM; to `C[C@@H](CNc1cc(F)cc(F)c1)NC(=O)[C@H](CC1CCCCC1)NC(=O)c1ccc(-c2cccc(F)c2)o1` [Compound 87, 5-(3-Fluoro-phenyl)-furan-2-carboxylic acid {2-cyclohexyl-1-(S)-[2-(3,5-difluoro-phenylamino)-1-(S)-methyl-ethylcarbamoyl]-ethyl}-amide], less than 0.1 µM.
In the case of `Cc1cccc(C(=O)N[C@H](C(=O)NCCN2CCc3cc(F)ccc32)C2CCCCC2)c1` [Compound 193, N-((S)-(2-(5-fluoroindolin-1-yl)ethylcarbamoyl)(cyclohexyl)methyl)-3-methylbenzamide], the Ki was less than 1 µM.
For `COc1cc(C)c(NC[C@H](C)NC(=O)[C@H](CC2CCCCC2)NC(=O)c2ccc(-c3cccc(F)c3)o2)c(C)c1` [Compound 114, 5-(3-Fluoro-phenyl)-furan-2-carboxylic acid {2-cyclohexyl-1-(S)-[2-(4-methoxy-2,6-dimethyl-phenylamino)-1-(S)-methyl-ethylcarbamoyl]-ethyl}-amide], the Ki is less than 0.1 µM.
For the compound `O=C(N[C@@H](CC1CCCCC1)C(=O)NCCN1CCc2cc(F)ccc21)C1CCN(S(=O)(=O)c2ccccc2)CC1` [Compound 58, 1-Benzenesulfonyl-piperidine-4-carboxylic acid (S)-{2-cyclohexyl-1-[2-(5-fluoro-2,3-dihydro-indol-1-yl)-ethylcarbamoyl]-ethyl}-amide], the Ki is less than 1 µM.
Under `C[C@@H](CN1CCc2cc(F)ccc21)NC(=O)[C@H](CC1CCCCC1)NS(=O)(=O)c1csc(-c2cnco2)c1` [Compound 250, (S,S)-3-Cyclohexyl-N-[2-(5-fluoro-2,3-dihydro-indol-1-yl)-1-methyl-ethyl]-2-(5-oxazol-5-yl-thiophene-3-sulfonylamino)-propionamide] stands less than 0.1 µM; under `O=C(NC(C(=O)N[C@@H](COCc1ccccc1)CN1CCc2cc(F)ccc21)c1ccc(Cl)cc1Cl)c1ccco1` (mixture of isomers) [Compound 207, N-(R,S)-((3-(benzyloxy)-1-(5-fluoroindolin-1-yl)propan-2-(R)-ylcarbamoyl)(2,4-dichlorophenyl)methyl)furan-2-carboxamide], less than 0.1 µM; under `C[C@@H](CNc1ccc(OC(F)(F)F)cc1)NC(=O)[C@H](CC1CCCCC1)NS(=O)(=O)c1cccnc1` [Compound 183, (S,S)-3-Cyclohexyl-N-[1-methyl-2-(4-trifluoromethoxy-phenylamino)-ethyl]-2-(pyridine-3-sulfonylamino)-propionamide], less than 0.1 µM.
To `O=C(NCCN1CCc2cc(F)ccc21)[C@H](CC1CCCCC1)NS(=O)(=O)c1ccc(Oc2ccccc2)cc1` [Compound 226, (S)-3-Cyclohexyl-N-[2-(5-fluoro-2,3-dihydro-indol-1-yl)-ethyl]-2-(4-phenoxy-benzenesulfonylamino)-propionamide] belongs less than 0.1 µM; to `CS(=O)(=O)N[C@@H](CC1CCCCC1)C(=O)NCCN1CCc2cc(F)ccc21` [Compound 249, (S)-3-Cyclohexyl-N-[2-(5-fluoro-2,3-dihydro-indol-1-yl)-ethyl]-2-methanesulfonylamino-propionamide], less than 10 µM; to `Cc1cccc(S(=O)(=O)N[C@@H](CC(C)(C)C)C(=O)N[C@@H](CC(=O)OC(C)(C)C)CN2CCc3cc(F)ccc32)c1` [Compound 252, (S,S)-3-[4,4-Dimethyl-2-(toluene-3-sulfonylamino)-pentanoylamino]-4-(5-fluoro-2,3-dihydro-indol-1-yl)-butyric acid tert-butyl ester], less than 1 µM.
Turning to `C[C@@H](CN1CC(C)(C)c2cc(F)ccc21)NC(=O)[C@H](CC1CCCCC1)NC(=O)O[C@@H]1CCOC1` [Compound 216, {2-Cyclohexyl-1-(S)-[2-(5-fluoro-3,3-dimethyl-2,3-dihydro-indol-1-yl)-1-(S)-methyl-ethylcarbamoyl]-ethyl}-carbamic acid (R)-tetrahydrofaran-3-yl ester], the Ki is less than 0.1 µM.
For the compound `C[C@@H](CNc1ccc(S(=O)(=O)N2CCOCC2)cc1)NC(=O)[C@H](CC1CCCCC1)NC(=O)c1ccc(-c2cccc(F)c2)o1` [Compound 136, 5-(3-Fluoro-phenyl)-furan-2-carboxylic acid (2-cyclohexyl-1-(S)-{1-(S)-methyl-2-[4-(morpholine-4-sulfonyl)-phenylamino]-ethylcarbamoyl}-ethyl)-amide], the Ki is less than 1 µM.
Under `C[C@@H](CNc1ccc(SC(F)(F)F)cc1)NC(=O)[C@H](CC1CCCCC1)NC(=O)c1ccc(-c2cccc(F)c2)o1` [Compound 119, 5-(3-Fluoro-phenyl)-furan-2-carboxylic acid {2-cyclohexyl-1-(S)-[1-(S)-methyl-2-(4-trifluoromethylsulfanyl-phenylamino)-ethylcarbamoyl]-ethyl}-amide] stands less than 0.1 µM; under `COc1cccc(C(=O)N[C@@H](CC(C)(C)C)C(=O)N[C@@H](CC#N)CN2CCc3cc(F)ccc32)c1` [Compound 165, N-{1-(S)-[2-Cyano-1-(S)-(5-fluoro-2,3-dihydro-indol-1-ylmethyl)-ethylcarbamoyl]-3,3-dimethyl-butyl}-3-methoxy-benzamide], less than 0.1 µM; under `C[C@@H](CN1CCc2cc(F)ccc21)NC(=O)[C@H](CC(C)(C)C)NC(=O)C1CC1` [Compound 177, Cyclopropanecarboxylic acid {1-(S)-[2-(5-fluoro-2,3-dihydro-indol-1-yl)-1-(S)-methyl-ethylcarbamoyl]-3,3-dimethyl-butyl}-amide], less than 0.1 µM.
With `O=C(NCCN1CCc2cc(F)ccc21)[C@H](CC1CCCCC1)NS(=O)(=O)c1cccs1` [Compound 235, (S)-3-Cyclohexyl-N-[2-(5-fluoro-2,3-dihydro-indol-1-yl)-ethyl]-2-(thiophene-2-sulfonylamino)-propionamide], the inhibitory constant (Ki) is less than 1 µM.
With `O=C(N[C@@H](CC1CCCCC1)C(=O)NCCN1CCc2cc(F)ccc21)C1CCN(C(=O)c2ccccc2)CC1` [Compound 5, 1-Benzoyl-piperidine-4-carboxylic acid (S)-{2-cyclohexyl-1-[2-(5-fluoro-2,3-dihydro-indol-1-yl)-ethylcarbamoyl]-ethyl}-amide], the Ki is less than 1 µM.
To `C[C@@H](CNc1ccc2c(c1)C(=O)OC2)NC(=O)[C@H](CC1CCCCC1)NC(=O)c1ccc(-c2cccc(F)c2)o1` [Compound 137, 5-(3-Fluoro-phenyl)-furan-2-carboxylic acid {2-cyclohexyl-1-(S)-[1-(S)-methyl-2-(3-oxo-1,3-dihydro-isobenzofuran-5-ylamino)-ethylcarbamoyl]-ethyl}-amide] belongs less than 0.1 µM.
To `COc1cccc(C(=O)N[C@@H](CCC2CCCCC2)C(=O)NCCN2CCc3cc(OCc4ccccc4)ccc32)c1` [Compound 19, (S)-N-{3-Cyclohexyl-1-[2-(5-benzyloxy-2,3-dihydro-indol-1-yl)-ethylcarbamoyl]-propyl}-3-methoxy-benzamide] belongs less than 10 µM.
